Experimental data taken from patent publication US7041169B2, “Methods of generating and screening for high free energy forms in capillaries” (S.S.C.I., Inc., priority 2000, dated 2006).
≈ marks a conversion by molar mass, not a printed value. Entries after “also recorded” stand apart in the source; their conditions may differ.

Legend:
Assay type in all cases: physicochemical
[1] = Solubility of ROY in water
[2] = Solubility of ROY in ethanol; conditions: 25 °C, organic solvent or mixture, 25 degrees C
Protocol: For this example, a solution of ROY in ethanol was prepared. A supersaturated solution of 160.3 mg of ROY in 2 mL of ethanol was prepared, having a supersaturation ratio of 6.7.

[3] = Solidification of WAY from supersaturated ethanol solution in 95 capillary tubes (Example 5)
Protocol: A supersaturated solution of WAY in ethanol was prepared, having a supersaturation ratio of 2. The WAY solution was introduced into 95 capillary tubes. The tubes were left open at both ends and allowed to evaporate to the atmosphere. After about 25 minutes, sixty-two capillary tubes contained crystals. […] After about one hour, four additional capillary tubes contained white crystals, nine additional capillary tubes contained yellow crystals, and one additional capillary tube contained a mixture of white and yellow crystals.

[4] = Solidification of WAY from ethanol and aqueous ethanol in capillary tubes at different temperatures (Example 6, Table 1)
Protocol: For this example, solutions of the WAY compound were prepared at a supersaturation ratio of 2 in ethanol and in 10% aqueous ethanol. Each of these WAY solutions was introduced into twenty capillary tubes having a stated inner diameter of 0.5–0.6 mm and which had been washed by soaking in distilled water for about 10 minutes, rinsing with ethanol, and drying for at least an hour at 65 degrees C. The capillary tubes were maintained at room temperature and pressure (about 23 degrees C. and at about 45% relative humidity) and were observed periodically.
Solidification of the WAY compound from ethanol and aqueous ethanol solutions was also done at different temperatures (reported below in degrees Celsius). Table 1 summarizes the results of seven sets of twenty capillary tubes under set different sets of conditions.

| solubility in water [1] | solubility [2] | Result (solid forms in 20 capillary tubes) ([4]; Solvent Aqueous ethanol, Temp 38 degrees Celsius, Time 0:50, tubes with mixed yellow and white crystals) | Result (solid forms in 20 capillary tubes) ([4]; Solvent Aqueous ethanol, Temp 38 degrees Celsius, Time 0:50, tubes with no solids formed) | Result (solid forms in 20 capillary tubes) ([4]; Solvent Aqueous ethanol, Temp 38 degrees Celsius, Time 1:13, tubes with mixed yellow and white crystals) | Result (solid forms in 20 capillary tubes) ([4]; Solvent Aqueous ethanol, Temp 38 degrees Celsius, Time 1:13, tubes with no solids formed) | Result (solid forms in 20 capillary tubes) ([4]; Solvent Aqueous ethanol, Temp 38 degrees Celsius, Time 1:42, tubes with mixed yellow and white crystals) | Result (solid forms in 20 capillary tubes) ([4]; Solvent Aqueous ethanol, Temp 38 degrees Celsius, Time 1:42, tubes with no solids formed) | Result (solid forms in 20 capillary tubes) ([4]; Solvent Aqueous ethanol, Temp −2 degrees Celsius, Time 4:35, tubes with white crystals) | Result (solid forms in 20 capillary tubes) ([4]; Solvent Aqueous ethanol, Temp −2 degrees Celsius, Time 4:35, tubes with yellow crystals) | Result (solid forms in 20 capillary tubes) ([4]; Solvent Ethanol, Temp 38 degrees Celsius, Time 0:50, tubes with mixed white and yellow crystals) | Result (solid forms in 20 capillary tubes) ([4]; Solvent Ethanol, Temp 38 degrees Celsius, Time 0:50, tubes with no solids formed) | Result (solid forms in 20 capillary tubes) ([4]; Solvent Ethanol, Temp 38 degrees Celsius, Time 1:43, tubes with mixed yellow and white crystals) | Result (solid forms in 20 capillary tubes) ([4]; Solvent Ethanol, Temp 38 degrees Celsius, Time 1:43, tubes with no solids formed) | Result (solid forms in 20 capillary tubes) ([4]; Solvent Ethanol, Temp −2 degrees Celsius, Time 4, tubes with white and yellow crystals) | Result (solid forms in 20 capillary tubes) ([4]; Solvent Ethanol, Temp −2 degrees Celsius, Time 4, tubes with white crystals) | SMILES | solid forms found in capillary tubes ([3]; after about 25 minutes, 95 tubes, sixty-two with crystals) | persistence of high free energy yellow crystals in capillary tubes ([3]; overnight (about thirteen hours and forty minutes), room temperature) |
| --- | --- | --- | --- | --- | --- | --- | --- | --- | --- | --- | --- | --- | --- | --- | --- | --- | --- | --- |
| generally insoluble in water | ~12 mg/mL (≈ 46.3 mM) | – | – | – | – | – | – | – | – | – | – | – | – | – | – | Cc1cc(C#N)c(Nc2ccccc2[N+](=O)[O-])s1 [ROY, 5-methyl-2-[(2-nitrophenyl)amino]-3-thiophenecarbonitrile] | – | – |
| – | – | 2/20: mixture of yellow | 18/20: no solids formed | 5/20: mixture of yellow | 15/20: no solids formed | 19/20: mixture of yellow | 1/20: no solids formed | 1/20: white crystals | 19/20: yellow crystals | 16/20: mixture of white | 4/20: no solids formed | 17/20: mixture of yellow | 3/20: no solids formed | 2/20: white and yellow | 10/20: white crystals | CC(=O)Nc1ccc(C)cc1[N+](=O)[O-] [WAY, 4-methyl-2-nitro-acetanilide] | forty contained white crystals; also recorded: twenty-two contained yellow crystals | nineteen of those tubes had transformed to white crystals; also recorded: six still contained yellow crystals |
